For one assay, the target named is T1, I249A A3R (Homo sapiens, UniProt P0DMS8, I249A).
T1 sequence (P0DMS8 1-318 I249A): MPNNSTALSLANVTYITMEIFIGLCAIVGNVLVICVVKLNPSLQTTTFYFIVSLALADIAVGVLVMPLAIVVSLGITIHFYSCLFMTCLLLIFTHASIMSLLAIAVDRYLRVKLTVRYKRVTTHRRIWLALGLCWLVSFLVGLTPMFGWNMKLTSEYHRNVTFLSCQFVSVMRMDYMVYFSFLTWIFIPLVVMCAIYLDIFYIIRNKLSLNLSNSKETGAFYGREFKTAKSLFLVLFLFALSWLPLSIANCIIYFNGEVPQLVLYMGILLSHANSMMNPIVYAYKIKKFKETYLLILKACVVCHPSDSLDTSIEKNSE
Conditions: + DMSO.

For assay [1], the target named is T2, WT A3R (Homo sapiens, UniProt P0DMS8).
T2 sequence (P0DMS8 1-318): T1 sequence (P0DMS8 1-318 I249A) with A249I
To be noted: + DMSO.

A further assay addresses T3, V169A A3R (Homo sapiens, UniProt P0DMS8, V169A).
T3 sequence (P0DMS8 1-318 V169A): T1 sequence (P0DMS8 1-318 I249A) with V169A, A249I
Conditions: + DMSO.

Another assay addresses T4, L90A A3R (Homo sapiens, UniProt P0DMS8, L90A).
T4 sequence (P0DMS8 1-318 L90A): T1 sequence (P0DMS8 1-318 I249A) with L90A, A249I
Conditions: + DMSO.

A further assay deals with T5, M177A A3R (Homo sapiens, UniProt P0DMS8, M177A).
T5 sequence (P0DMS8 1-318 M177A): T1 sequence (P0DMS8 1-318 I249A) with M177A, A249I
Conditions: + DMSO.

The target in assay [2] is T2, WT A3R. Put plainly: IB-MECA stimulated cAMP inhibition at WT A3R Flp-In-CHO, with Schild analysis. It is filed as cell-based. To be noted: IB-MECA only; difference between Emin and basal.
The target of a further assay is T6, L264A A3R (Homo sapiens, UniProt P0DMS8, L264A).
T6 sequence (P0DMS8 1-318 L264A): T1 sequence (P0DMS8 1-318 I249A) with A249I, L264A
Conditions: + DMSO.

Numbering of substitutions follows the chain as printed. Read-outs that look alike come from different tables or passages of the source.

On to `CNC(=O)[C@H]1O[C@@H](n2cnc3c(NCc4cccc(I)c4)ncnc32)[C@H](O)[C@@H]1O` [IB-MECA, (2S,3S,4R,5R)-3,4-dihydroxy-5-[6-[(3-iodophenyl)methylamino]purin-9-yl]-N-methyloxolane-2-carboxamide], for which the Basal on I249A A3R came out at 62.6 ± 2.7 %100 μM forskolin; at WT A3R [1], 60.1 ± 0.9 %100 μM forskolin; on V169A A3R, 55.3 ± 2.4 %100 μM forskolin; on L90A A3R, 73.2 ± 2.7 %100 μM forskolin; on M177A A3R, 70.2 ± 2.0 %100 μM forskolin; on L264A A3R, 72.0 ± 2.3 %100 μM forskolin. Besides, the Emin is given as 34.9 ± 2.2 %100 μM forskolin on I249A A3R; 35.0 ± 1.6 %100 μM forskolin at WT A3R [1]; 30.9 ± 1.7 %100 μM forskolin on V169A A3R; 43.3 ± 3.2 %100 μM forskolin at L90A A3R; 38.6 ± 2.7 %100 μM forskolin on M177A A3R; 41.1 ± 2.2 %100 μM forskolin at L264A A3R. The Span on I249A A3R is on record as 27.7 ± 1.3; on WT A3R [1], 25.1 ± 2.0; on L90A A3R, 29.9 ± 1.8; at M177A A3R it was 31.6 ± 2.0; at WT A3R [2], 116.1 ± 3.5; at L264A A3R, 30.9 ± 2.2.

For the origin of these results see paper PMC7695835, “Pharmacological characterisation of novel adenosine A3 receptor antagonists” (Scientific Reports, 2020).
